Calls of active or inactive are those of the source. The calls are words filed in the database; no cut-off is given here.

The target in data set [1] is T1, Receptor-type tyrosine-protein phosphatase C (Homo sapiens, UniProt P08575).
T1 sequence (P08575 whole entry): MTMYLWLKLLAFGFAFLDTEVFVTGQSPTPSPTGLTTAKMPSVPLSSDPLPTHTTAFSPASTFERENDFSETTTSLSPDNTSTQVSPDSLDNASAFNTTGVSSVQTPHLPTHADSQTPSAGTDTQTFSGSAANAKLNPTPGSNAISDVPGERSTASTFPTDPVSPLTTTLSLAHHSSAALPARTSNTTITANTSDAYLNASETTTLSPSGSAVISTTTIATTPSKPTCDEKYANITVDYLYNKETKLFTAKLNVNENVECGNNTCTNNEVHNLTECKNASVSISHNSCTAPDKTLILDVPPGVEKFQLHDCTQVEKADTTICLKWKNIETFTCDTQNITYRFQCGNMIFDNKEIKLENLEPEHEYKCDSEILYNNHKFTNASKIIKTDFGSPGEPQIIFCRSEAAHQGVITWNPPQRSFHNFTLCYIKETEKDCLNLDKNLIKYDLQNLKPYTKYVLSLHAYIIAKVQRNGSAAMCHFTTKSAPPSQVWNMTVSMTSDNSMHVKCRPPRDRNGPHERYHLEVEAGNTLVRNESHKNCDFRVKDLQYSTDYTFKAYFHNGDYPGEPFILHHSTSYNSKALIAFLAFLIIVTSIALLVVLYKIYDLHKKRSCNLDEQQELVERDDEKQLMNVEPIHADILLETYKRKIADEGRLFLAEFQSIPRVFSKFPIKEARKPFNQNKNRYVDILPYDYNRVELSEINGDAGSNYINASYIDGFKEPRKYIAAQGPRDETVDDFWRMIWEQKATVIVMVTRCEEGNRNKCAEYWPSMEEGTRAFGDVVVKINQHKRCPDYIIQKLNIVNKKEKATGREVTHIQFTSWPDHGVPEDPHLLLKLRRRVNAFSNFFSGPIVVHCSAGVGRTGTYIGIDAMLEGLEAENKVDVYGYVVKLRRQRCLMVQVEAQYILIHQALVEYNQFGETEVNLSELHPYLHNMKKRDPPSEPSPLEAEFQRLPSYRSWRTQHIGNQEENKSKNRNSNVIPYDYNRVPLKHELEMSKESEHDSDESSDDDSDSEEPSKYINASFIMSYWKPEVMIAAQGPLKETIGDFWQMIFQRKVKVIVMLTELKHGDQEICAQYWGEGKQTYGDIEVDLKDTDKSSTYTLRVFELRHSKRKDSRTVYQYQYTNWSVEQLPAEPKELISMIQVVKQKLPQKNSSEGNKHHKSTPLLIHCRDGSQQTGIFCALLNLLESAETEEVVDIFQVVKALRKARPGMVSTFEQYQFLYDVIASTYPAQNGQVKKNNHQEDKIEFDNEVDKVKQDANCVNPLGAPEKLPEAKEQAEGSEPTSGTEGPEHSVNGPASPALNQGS
As to the kind of experiment: Inhibition of human CD45-cytoplasmic domain at 1500 uM after 10 mins by Kitz-Wilson analysis.

In data set [2] the target is T2, Receptor-type tyrosine-protein phosphatase C (Homo sapiens) (UniProt P08575).
T2 sequence (whole entry): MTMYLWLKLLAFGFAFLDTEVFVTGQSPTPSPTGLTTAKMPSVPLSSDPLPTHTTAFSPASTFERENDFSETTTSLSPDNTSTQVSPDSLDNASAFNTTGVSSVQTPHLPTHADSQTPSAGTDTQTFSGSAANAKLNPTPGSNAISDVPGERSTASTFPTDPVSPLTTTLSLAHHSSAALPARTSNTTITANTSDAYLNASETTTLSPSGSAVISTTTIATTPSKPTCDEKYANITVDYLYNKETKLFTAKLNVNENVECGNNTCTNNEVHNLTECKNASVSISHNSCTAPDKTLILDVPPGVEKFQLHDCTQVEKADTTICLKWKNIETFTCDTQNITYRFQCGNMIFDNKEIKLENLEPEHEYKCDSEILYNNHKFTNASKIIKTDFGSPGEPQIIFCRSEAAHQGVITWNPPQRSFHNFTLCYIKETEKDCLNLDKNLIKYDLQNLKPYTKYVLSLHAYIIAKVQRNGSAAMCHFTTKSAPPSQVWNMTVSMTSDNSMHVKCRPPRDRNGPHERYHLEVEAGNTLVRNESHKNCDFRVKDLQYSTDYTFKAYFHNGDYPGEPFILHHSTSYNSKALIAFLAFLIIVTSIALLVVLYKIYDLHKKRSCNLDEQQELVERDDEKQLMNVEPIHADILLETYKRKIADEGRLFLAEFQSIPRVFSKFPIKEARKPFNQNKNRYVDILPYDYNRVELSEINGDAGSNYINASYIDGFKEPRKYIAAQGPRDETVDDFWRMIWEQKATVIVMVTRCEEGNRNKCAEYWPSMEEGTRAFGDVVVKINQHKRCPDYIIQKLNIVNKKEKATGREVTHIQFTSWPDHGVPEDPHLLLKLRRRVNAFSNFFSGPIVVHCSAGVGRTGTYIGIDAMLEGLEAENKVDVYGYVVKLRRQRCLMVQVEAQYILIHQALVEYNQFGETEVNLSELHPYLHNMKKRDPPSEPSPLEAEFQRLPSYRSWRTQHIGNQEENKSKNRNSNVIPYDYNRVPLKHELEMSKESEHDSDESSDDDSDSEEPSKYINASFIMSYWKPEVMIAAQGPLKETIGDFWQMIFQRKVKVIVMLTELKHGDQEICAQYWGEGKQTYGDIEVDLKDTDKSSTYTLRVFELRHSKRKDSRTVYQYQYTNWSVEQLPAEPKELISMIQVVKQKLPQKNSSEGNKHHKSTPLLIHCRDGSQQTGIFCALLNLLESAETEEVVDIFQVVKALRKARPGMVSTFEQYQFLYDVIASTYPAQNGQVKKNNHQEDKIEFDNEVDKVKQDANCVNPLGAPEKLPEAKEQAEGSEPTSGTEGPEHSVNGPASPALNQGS
In words: Competitive inhibition of human CD45-cytoplasmic domain after 10 mins.

The target of data set [3] is T1, Receptor-type tyrosine-protein phosphatase C. In words: Inhibition of human CD45-cytoplasmic domain at 150 uM after 10 mins by Kitz-Wilson analysis.
Data set [4] concerns the target T2, Receptor-type tyrosine-protein phosphatase C (Homo sapiens). In words: Competitive inhibition of human CD45-cytoplasmic domain. Particulars: TDE = time-dependent effect.
Compound in data set [5]: N[C@@H](Cc1ccc(C(Br)P(=O)(O)O)cc1)C(=O)O
In words: Inhibition of human CD45-cytoplasmic domain at 150 uM after 10 mins by Michaelis-Menten equation analysis.

Compound in data set [6]: CC(C)C[C@H](NC(=O)[C@H](Cc1ccc(C(Br)P(=O)(O)O)cc1)NC(=O)[C@@H](N)CC(=O)O)C(=O)O
As to the kind of experiment: Inhibition of human CD45-cytoplasmic domain at 35 uM after 10 mins by Michaelis-Menten equation analysis.

Turning to `O=P(O)(O)C(Br)c1ccccc1` (configuration not stated) [[BROMO(PHENYL)METHYL]PHOSPHONIC ACID], the inhibition constant (Ki) result in data set [1] is on record as “Not Active”. `CC(C)C[C@H](NC(=O)[C@H](Cc1ccc(C(Br)P(=O)(O)O)cc1)NC(=O)[C@@H](N)CC(=O)O)C(=O)O` (some centres not stated): the inhibition entry in data set [2] is “inactive”. The molecule `N[C@@H](Cc1ccc(C(Br)P(=O)(O)O)cc1)C(=O)O` (some centres not stated) came in with an inhibition constant (Ki) in data set [3] of 40 µM. Also, in data set [2], the inhibition result is “inactive”. Besides, the inhibition result in data set [4] was “tde”.

B1: Receptor-type tyrosine-protein phosphatase C (Homo sapiens), P08575 (protein)
chain: MTMYLWLKLLAFGFAFLDTEVFVTGQSPTPSPTGLTTAKMPSVPLSSDPLPTHTTAFSPASTFERENDFSETTTSLSPDNTSTQVSPDSLDNASAFNTTGVSSVQTPHLPTHADSQTPSAGTDTQTFSGSAANAKLNPTPGSNAISDVPGERSTASTFPTDPVSPLTTTLSLAHHSSAALPARTSNTTITANTSDAYLNASETTTLSPSGSAVISTTTIATTPSKPTCDEKYANITVDYLYNKETKLFTAKLNVNENVECGNNTCTNNEVHNLTECKNASVSISHNSCTAPDKTLILDVPPGVEKFQLHDCTQVEKADTTICLKWKNIETFTCDTQNITYRFQCGNMIFDNKEIKLENLEPEHEYKCDSEILYNNHKFTNASKIIKTDFGSPGEPQIIFCRSEAAHQGVITWNPPQRSFHNFTLCYIKETEKDCLNLDKNLIKYDLQNLKPYTKYVLSLHAYIIAKVQRNGSAAMCHFTTKSAPPSQVWNMTVSMTSDNSMHVKCRPPRDRNGPHERYHLEVEAGNTLVRNESHKNCDFRVKDLQYSTDYTFKAYFHNGDYPGEPFILHHSTSYNSKALIAFLAFLIIVTSIALLVVLYKIYDLHKKRSCNLDEQQELVERDDEKQLMNVEPIHADILLETYKRKIADEGRLFLAEFQSIPRVFSKFPIKEARKPFNQNKNRYVDILPYDYNRVELSEINGDAGSNYINASYIDGFKEPRKYIAAQGPRDETVDDFWRMIWEQKATVIVMVTRCEEGNRNKCAEYWPSMEEGTRAFGDVVVKINQHKRCPDYIIQKLNIVNKKEKATGREVTHIQFTSWPDHGVPEDPHLLLKLRRRVNAFSNFFSGPIVVHCSAGVGRTGTYIGIDAMLEGLEAENKVDVYGYVVKLRRQRCLMVQVEAQYILIHQALVEYNQFGETEVNLSELHPYLHNMKKRDPPSEPSPLEAEFQRLPSYRSWRTQHIGNQEENKSKNRNSNVIPYDYNRVPLKHELEMSKESEHDSDESSDDDSDSEEPSKYINASFIMSYWKPEVMIAAQGPLKETIGDFWQMIFQRKVKVIVMLTELKHGDQEICAQYWGEGKQTYGDIEVDLKDTDKSSTYTLRVFELRHSKRKDSRTVYQYQYTNWSVEQLPAEPKELISMIQVVKQKLPQKNSSEGNKHHKSTPLLIHCRDGSQQTGIFCALLNLLESAETEEVVDIFQVVKALRKARPGMVSTFEQYQFLYDVIASTYPAQNGQVKKNNHQEDKIEFDNEVDKVKQDANCVNPLGAPEKLPEAKEQAEGSEPTSGTEGPEHSVNGPASPALNQGS
On to B1, for which the Km in data set [5] and in data set [6] was 141 µM throughout.

The values above are taken from ChEMBL document CHEMBL1287770, “A protected l-bromophosphonomethylphenylalanine amino acid derivative (BrPmp) for synthesis of irreversible protein tyrosine phosphatase inhibitors” (Bioorg Med Chem, 2010).
